In patent US10945435B2, “Imidazopyrimidine derivatives with sulfur containing phenyl and pyridyl substituents” (SYNGENTA PARTICIPATIONS AG, priority 2017, dated 2021):

Assays:
Type in all cases: in vivo
[1] = test system: Bemisia tabaci (Cotton White Fly); assay: Example B1 Bemisia tabaci feeding/contact activity; conditions: foliar, 144 h, application rate of 200 ppm, adult white flies on sprayed cotton leaf discs, 6 days after incubation
Method: Bemisia tabaci (Cotton White Fly): Feeding/Contact Activity
Cotton leaf discs were placed on agar in 24-well microtiter plates and sprayed with aqueous test solutions prepared from 10,000 ppm DMSO stock solutions. After drying the leaf discs were infested with adult white flies. The samples were checked for mortality 6 days after incubation.

[2] = test system: Euschistus heros (Neotropical Brown Stink Bug); assay: Example B5 Euschistus heros mortality and growth inhibition; conditions: 120 h, application rate of 200 ppm, N2 nymphs on sprayed soybean leaves, 5 days after infestation, read-out: effect in at least one of the two categories (mortality or growth inhibition)
Method: Euschistus heros (Neotropical Brown Stink Bug)
Soybean leaves on agar in 24-well microtiter plates were sprayed with aqueous test solutions prepared from 10,000 ppm DMSO stock solutions. After drying the leaves were infested with N2 nymphs. The samples were assessed for mortality and growth inhibition in comparison to untreated samples 5 days after infestation.

[3] = test system: Euschistus heros (Neotropical Brown Stink Bug); assay: Example B6 Euschistus heros growth inhibition; conditions: 120 h, application rate of 200 ppm, N2 nymphs on sprayed soybean leaves, 5 days after infestation
Method: Euschistus heros (Neotropical Brown Stink Bug): Growth Inhibition
Soybean leaves on agar in 24-well microtiter plates were sprayed with aqueous test solutions prepared from 10,000 ppm DMSO stock solutions. After drying the leaves were infested with N2 nymphs. The samples were assessed for growth inhibition in comparison to untreated samples 5 days after infestation. Control of Euschistus heros by a test sample is given when the growth inhibition is higher than the untreated sample.

[4] = test system: Euschistus heros (Neotropical Brown Stink Bug); assay: Example B7 Euschistus heros feeding/contact activity; conditions: 120 h, application rate of 200 ppm, N2 nymphs on sprayed soybean leaves, 5 days after infestation
Method: Euschistus heros (Neotropical Brown Stink Bug): Feeding/Contact Activity
Soybean leaves on agar in 24-well microtiter plates were sprayed with aqueous test solutions prepared from 10,000 ppm DMSO stock solutions. After drying the leaves were infested with N2 nymphs. The samples were assessed for mortality 5 days after infestation.

[5] = test system: Frankliniella occidentalis (Western Flower Thrips); assay: Example B8 Frankliniella occidentalis feeding/contact activity; conditions: foliar, 168 h, application rate of 200 ppm, mixed-age population on sprayed sunflower leaf discs, 7 days after infestation
Method: Frankliniella occidentalis (Western Flower Thrips): Feeding/Contact Activity
Sunflower leaf discs were placed on agar in 24-well microtiter plates and sprayed with aqueous test solutions prepared from 10,000 DMSO stock solutions. After drying the leaf discs were infested with a Frankliniella population of mixed ages. The samples were assessed for mortality 7 days after infestation.

[6] = test system: Myzus persicae (Green Peach Aphid); assay: Example B9 Myzus persicae feeding/contact activity; conditions: foliar, 144 h, application rate of 200 ppm, mixed-age aphids on sprayed sunflower leaf discs, 6 days after infestation
Method: Myzus persicae (Green Peach Aphid): Feeding/Contact Activity
Sunflower leaf discs were placed onto agar in a 24-well microtiter plate and sprayed with aqueous test solutions prepared from 10,000 ppm DMSO stock solutions. After drying, the leaf discs were infested with an aphid population of mixed ages. The samples were assessed for mortality 6 days after infestation.

[7] = test system: Myzus persicae (Green Peach Aphid); assay: Example B10 Myzus persicae systemic activity; conditions: 144 h, test rate of 24 ppm, roots of infested pea seedlings in test solution, 6 days
Method: Myzus persicae (Green Peach Aphid). Systemic Activity
Roots of pea seedlings infested with an aphid population of mixed ages were placed directly into aqueous test solutions prepared from 10,000 DMSO stock solutions. The samples were assessed for mortality 6 days after placing seedlings into test solutions.

[8] = test system: Diabrotica balteata (Corn Root Worm); assay: Example B2 Diabrotica balteata mortality and growth inhibition; conditions: 96 h, application rate of 200 ppm, L2 larvae on sprayed maize sprouts, 4 days after infestation, read-out: effect in at least one of the two categories (mortality or growth inhibition)
Method: Diabrotica balteata (Corn Root Worm)
Maize sprouts placed onto an agar layer in 24-well microtiter plates were treated with aqueous test solutions prepared from 10,000 ppm DMSO stock solutions by spraying. After drying, the plates were infested with L2 larvae (6 to 10 per well). The samples were assessed for mortality and growth inhibition in comparison to untreated samples 4 days after infestation.

[9] = test system: Diabrotica balteata (Corn Root Worm); assay: Example B4 Diabrotica balteata mortality; conditions: 96 h, application rate of 200 ppm, L2 larvae on sprayed maize sprouts, 4 days after infestation
Method: (§1) Diabrotica Balteata (Corn Root Worm):
Maize sprouts placed onto an agar layer in 24-well microtiter plates were treated with aqueous test solutions prepared from 10,000 ppm DMSO stock solutions by spraying. After drying, the plates were infested with L2 larvae (6 to 10 per well). The samples were assessed for mortality 4 days after infestation.

[10] = test system: Plutella xylostella (Diamond Back Moth); assay: Example B12 Plutella xylostella feeding/contact activity; conditions: 120 h, application rate of 200 ppm, L2 larvae on treated artificial diet, 5 days after infestation
Method: Plutella xylostella (Diamond Back Moth): Feeding/Contact Activity
24-well microtiter plates with artificial diet were treated with aqueous test solutions prepared from 10,000 ppm DMSO stock solutions by pipetting. After drying, the plates were infested with L2 larvae (10 to 15 per well). The samples were assessed for mortality 5 days after infestation.

[11] = test system: Plutella xylostella (Diamond Back Moth); assay: Example B13 Plutella xylostella mortality and growth inhibition; conditions: 120 h, application rate of 200 ppm, L2 larvae on treated artificial diet, 5 days after infestation, read-out: effect in at least one of the two categories (mortality or growth inhibition)
Method: Plutella xylostella (Diamond Back Moth)
24-well microtiter plates with artificial diet were treated with aqueous test solutions prepared from 10,000 ppm DMSO stock solutions by pipetting. After drying, the plates were infested with L2 larvae (10 to 15 per well). The samples were assessed for mortality and growth inhibition in comparison to untreated samples 5 days after infestation.

[12] = test system: Spodoptera littoralis (Egyptian Cotton Leaf Worm); assay: Example B14 Spodoptera littoralis anti-feeding activity; conditions: foliar, 72 h, application rate of 200 ppm, L1 larvae on sprayed cotton leaf discs, 3 days after infestation, read-out: control (anti-feeding effect)
[13] = test system: Spodoptera littoralis (Egyptian Cotton Leaf Worm); assay: Example B16 Spodoptera littoralis feeding/contact activity; conditions: foliar, 72 h, application rate of 200 ppm, L1 larvae on sprayed cotton leaf discs, 3 days after infestation
Method: Spodoptera littoralis (Egyptian Cotton Leaf Worm): Feeding/Contact Activity
Cotton leaf discs were placed onto agar in 24-well microtiter plates and sprayed with aqueous test solutions prepared from 10,000 ppm DMSO stock solutions. After drying the leaf discs were infested with five L1 larvae. The samples were assessed for mortality 3 days after infestation.

[14] = test system: Diabrotica balteata (Corn Root Worm); assay: Example B3 Diabrotica balteata growth inhibition; conditions: 96 h, application rate of 200 ppm, L2 larvae on sprayed maize sprouts, 4 days after infestation
Method: as §1
Maize sprouts placed onto an agar layer in 24-well microtiter plates were treated with aqueous test solutions prepared from 10,000 ppm DMSO stock solutions by spraying. After drying, the plates were infested with L2 larvae (6 to 10 per well). The samples were assessed for growth inhibition in comparison to untreated samples 4 days after infestation. Control of Diabrotica balteata by a test sample is given when the growth inhibition is higher than in the untreated sample.

[15] = test system: Plutella xylostella (Diamond Back Moth); assay: Example B11 Plutella xylostella growth inhibition activity; conditions: 120 h, application rate of 200 ppm, L2 larvae on treated artificial diet, 5 days after infestation

CCS(=O)(=O)c1cc(OC[S+](C)[O-])cnc1-c1cn2cnc(C(F)(F)F)cc2n1 (stereo not shown) [Compound P22, 2-[3-ethylsulfonyl-5-(methylsulfinylmethoxy)-2-pyridyl]-7-(trifluoromethyl)imidazo[1,2-c]pyrimidine]
≥ 80%: mortality at 200 ppm [1] | percent effect (mortality or growth inhibition) at 200 ppm [2] | inhibition at 200 ppm [3] | mortality at 200 ppm [4] | mortality at 200 ppm [5] | mortality at 200 ppm [6] | mortality at 24 ppm [7]

CCS(=O)(=O)c1cc(OCC(C)C)cnc1-c1cn2cnc(C(F)(F)F)cc2n1 [Compound P14, 2-(3-ethylsulfonyl-5-isobutoxy-2-pyridyl)-7-(trifluoromethyl)imidazo[1,2-c]pyrimidine]
≥ 80%: percent effect (mortality or growth inhibition) at 200 ppm [8] | mortality at 200 ppm [9] | percent effect (mortality or growth inhibition) at 200 ppm [2] | inhibition at 200 ppm [3] | mortality at 200 ppm [4] | mortality at 200 ppm [6] | mortality at 200 ppm [10] | percent effect (mortality or growth inhibition) at 200 ppm [11] | pest or weed control at 200 ppm [12] | mortality at 200 ppm [13]

CCS(=O)(=O)c1cc(OCC(F)F)cnc1-c1cn2cnc(C(F)(F)F)cc2n1 [Compound P8, 2-[5-(2,2-difluoroethoxy)-3-ethylsulfonyl-2-pyridyl]-7-(trifluoromethyl)imidazo[1,2-c]pyrimidine]
≥ 80%: mortality at 200 ppm [1] | percent effect (mortality or growth inhibition) at 200 ppm [8] | inhibition at 200 ppm [14] | mortality at 200 ppm [9] | percent effect (mortality or growth inhibition) at 200 ppm [2] | mortality at 200 ppm [4] | mortality at 200 ppm [5] | mortality at 200 ppm [6] | mortality at 24 ppm [7] | inhibition at 200 ppm [15] | mortality at 200 ppm [10] | percent effect (mortality or growth inhibition) at 200 ppm [11] | pest or weed control at 200 ppm [12] | mortality at 200 ppm [13]
